Structures are written as SMILES. Like-named read-outs stand apart in the source and are kept apart here. Some results are limits rather than exact numbers.

For one series, the system named is apomorphine. The series can be described thus: Anti-apomorphine action (mouse). In kind it is in vivo. Conditions: 1 h before apomorphine, read-out: anti-apomorphine effect ED50. The method, then: The test compound was orally administered to the mice, and 60 minutes later, 0.5 mg/kg of apomorphine hydrochloride was subcutaneously administered. The movement for 20 minutes from immediately after the administration was measured using Balimex (Columbus, USA).

In the next series the target is T1, dopamine 2 (D2) receptor (Rattus norvegicus, UniProt P61169).
T1 construct: A synaptosome fraction was separated from corpus striatum; from tissue; host or cells: corpus striatum of Wistar rat, synaptosome fraction
The series can be described thus: Affinity for dopamine 2 receptor ([3H]spiperone binding, synaptosome fraction of corpus striatum). Set-up: species or system Wistar rat. Conditions: tritiated spiperone 0.2 nM, 37° C., 20 minutes, read-out: binding D2, inhibition constant (Ki value). The procedure:
Experiment Example 1: Affinity for dopamine 2 receptor
A specific binding of dopamine 2 (D2) receptor was tested according to the method described in Eur. J. Pharmacol. 46, 377 (1977).
A synaptosome fraction was separated from corpus striatum of 9-10 weeks old Wistar rat, and suspended in 50 mM Tris-HCl buffer (pH 7.1) containing 120 mM sodium chloride, 5 mM potassium chloride, 2 mM calcium chloride, 1 mM magnesium chloride, 10 μM pargyline and 0.1% ascorbic acid for use in the test.
The test compound at several concentrations and tritiated spiperone (final concentration 0.2 nM) were added to the synaptosome suspension, and each mixture was reacted at 37° C. for 20 minutes. After the reaction, the reaction mixture was filtered with suction through a Whatman GF/B glass filter. The filter was washed with 50 mM Tris-HCl buffer (pH 7.7), and the radioactivity of the filter was measured by a liquid scintillation counter. Non-specific binding was determined in the presence of 10^-4 M(±)-sulpiride. The concentration necessary for 50% inhibition (IC50) was determined on a graph, and inhibition constant (Ki value) was calculated.

Series [1] has as its target T2, serotonin 2 (5-HT2) receptor (Rattus norvegicus, UniProt P14842).
T2 construct: A crude synaptosome fraction was separated from hippocampus; from tissue; host or cells: hippocampus of Wistar rat, crude synaptosome fraction
In words: Affinity for serotonin 2 receptor ([3H]ketanserin binding, crude synaptosome fraction of hippocampus). Set-up: species or system Wistar rat. Conditions: tritiated ketanserin 0.2 nM, pH 7.7, 37° C., 20 minutes, read-out: binding 5-HT2, inhibition constant (Ki value). The procedure: Experiment Example 3: Affinity for serotonin 2 receptor
A specific binding of serotonin 2 (5-HT2) receptor was tested according to the method described in Mol. Pharmacol. 21, 301 (1981).
A crude synaptosome fraction was separated from hippocampus of 9-10 weeks old Wistar rat, and suspended in 50 mM Tris-HCl buffer (pH 7.7) for use in the test. The test compound at several concentrations and tritiated ketanserin (final concentration 0.2 nM) were added to the synaptosome suspension, and each mixture was incubated at 37° C. for 20 minutes. After the incubation, the mixture was filtered with suction through a Whatman GF/B glass filter. The filter was washed with 50 mM Tris-HCl buffer (plt 7.7), and the radioactivity of the filter was measured by a liquid scintillation counter. Non-specific binding was determined in the presence of 10^-5 M mianserin. The concentration necessary for 50% inhibition (IC50) was determined on a graph, and inhibition constant (Ki value) was calculated.

The target of series [2] is T3, serotonin 1A (5-HT1A) receptor (Rattus norvegicus, UniProt P19327).
T3 construct: A crude synaptosome fraction was separated from hippocampus; from tissue; host or cells: hippocampus of Wistar rat, crude synaptosome fraction
T3 sequence (P19327 1-422): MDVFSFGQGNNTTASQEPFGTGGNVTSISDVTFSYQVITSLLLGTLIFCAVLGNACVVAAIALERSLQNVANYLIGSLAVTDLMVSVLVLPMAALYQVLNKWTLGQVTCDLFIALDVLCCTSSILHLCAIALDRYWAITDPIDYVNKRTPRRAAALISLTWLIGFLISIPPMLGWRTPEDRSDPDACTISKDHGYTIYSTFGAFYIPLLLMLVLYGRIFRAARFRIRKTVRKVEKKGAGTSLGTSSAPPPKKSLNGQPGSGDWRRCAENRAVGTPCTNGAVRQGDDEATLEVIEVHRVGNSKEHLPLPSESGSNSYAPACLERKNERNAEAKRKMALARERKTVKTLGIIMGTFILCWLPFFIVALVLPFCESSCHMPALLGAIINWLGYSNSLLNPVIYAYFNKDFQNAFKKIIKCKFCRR
In words: Affinity for serotonin 1A receptor ([3H]8-OH-DPAT binding, crude synaptosome fraction of hippocampus). Conditions: tritiated 8-OH-DPAT 0.2 nM, pH 7.4, 37° C., 12 minutes, read-out: binding 5-HT1A, inhibition constant (Ki value). The method, then:
Experiment Example 2: Affinity for serotonin 1A receptor
A specific binding of serotonin 1A (5-HT1A) receptor was tested according to the method described in J. Neurochem. 44, 1685 (1985).
A crude synaptosome fraction was separated from hippocampus of 9-10 weeks old Nistar rat, and suspended in 50 mM Tris-HCl buffer (pH 7.4) containing 1 mM manganese chloride for use in the test. The test compound at several concentrations and tritiated 8-hydroxy-2-dipropylaminotctralin (8-OH-DPAT, final concentration 0.2 nM) were added to the synaptosome suspension, and each mixture was reacted at 37° C. for 12 minutes. After the reaction, the reaction mixture was filtered with suction through a Whatman GF/B glass filter. The filter was washed with 50 mM Tris-HCl buffer (pH 7.7), and the radioactivity of the filter was measured by a liquid scintillation counter. Non-specific binding was determined in the presence of 10^-5 M serotonin (5HT). The concentration necessary for 50% inhibition (IC50) was determined on a graph, and inhibition constant (Ki value) was calculated.

The next series has as its system ddY mice. The series can be described thus: Acute toxicity. Conditions: 5 days. In kind it is in vivo.

T1 sequence (P61169 whole entry): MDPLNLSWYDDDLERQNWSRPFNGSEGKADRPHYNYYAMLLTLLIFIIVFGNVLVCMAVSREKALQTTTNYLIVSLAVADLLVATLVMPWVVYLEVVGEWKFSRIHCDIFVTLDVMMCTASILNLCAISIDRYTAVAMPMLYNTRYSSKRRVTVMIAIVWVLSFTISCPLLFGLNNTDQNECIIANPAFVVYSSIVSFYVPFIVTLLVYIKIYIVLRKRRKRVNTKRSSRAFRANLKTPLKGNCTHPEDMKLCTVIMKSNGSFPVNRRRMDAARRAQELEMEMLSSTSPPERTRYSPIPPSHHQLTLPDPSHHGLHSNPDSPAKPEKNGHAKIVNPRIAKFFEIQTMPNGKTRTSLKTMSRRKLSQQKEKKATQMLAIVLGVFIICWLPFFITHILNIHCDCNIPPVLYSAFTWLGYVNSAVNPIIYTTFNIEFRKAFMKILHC
T2 sequence (P14842 whole entry): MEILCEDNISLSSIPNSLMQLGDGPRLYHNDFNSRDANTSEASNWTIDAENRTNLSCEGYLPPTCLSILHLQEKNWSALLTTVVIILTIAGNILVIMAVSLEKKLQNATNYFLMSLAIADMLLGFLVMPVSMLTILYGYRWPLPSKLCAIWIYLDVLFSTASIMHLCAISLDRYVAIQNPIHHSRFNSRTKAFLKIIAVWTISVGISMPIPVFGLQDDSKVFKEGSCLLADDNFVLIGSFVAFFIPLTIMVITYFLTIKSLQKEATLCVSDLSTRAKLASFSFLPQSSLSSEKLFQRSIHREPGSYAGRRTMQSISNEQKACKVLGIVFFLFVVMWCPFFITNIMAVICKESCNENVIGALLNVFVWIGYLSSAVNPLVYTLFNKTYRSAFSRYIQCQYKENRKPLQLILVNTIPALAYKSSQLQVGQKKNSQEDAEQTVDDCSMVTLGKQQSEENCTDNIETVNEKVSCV

As usually defined, the ED50 is the dose at which the effect has come halfway, by size or by number of responders. For orientation: Ki means the equilibrium dissociation constant of an inhibitor or competing ligand from its target. Consider `CC(=O)c1ccc(SCCCN2CCN(c3nsc4ccccc34)CC2)s1` [Example 21, 3-(4-(3-((5-acctyl-2-thicnyl)thio)propyl)-l-piperadinyl)1,2-benzisothiazole], for which the 50% effective dose (ED50) in the series with apomorphine (po) came out at 35 mg/kg. For the same compound, the Ki at dopamine 2 (D2) receptor worked out at 1.3 nM; in series [1], 0.59 nM; in series [2], 0.12 nM.
In the same order, the values of `CC(=O)NCCc1sc(CCN2CCC(c3noc4cc(F)ccc34)CC2)cc1Br` [Example 159, 3-(1-(2-(5-(2-acetylaminoethyl)-4-bromo-2-thienyl)ethyl)-piperidin-4-yl) -6-fluoro-1,2-benzisoxazole] are 0.53 mg/kg, 0.5 nM, 0.047 nM and 12 nM.
Consider `CC(=O)NCc1ccc(CCCCN2CCC(c3noc4cc(F)ccc34)CC2)s1` [Example 108, 3-(1-(4-(5-acetylaminomethyl-2-thienyl)butyl)piperidin-4-yl) -6-fluoro-1,2-benzisoxazole], for which the ED50 with apomorphine (po) turned out to be 0.41 mg/kg. The Ki at dopamine 2 (D2) receptor was determined as 2 nM; in series [1], 2.1 nM; in series [2], 56 nM.
In the same order, the values of `CC(=O)NCCc1ccc(CCN2CCC(c3noc4cc(F)ccc34)CC2)s1` [Example 158, 3-(1-(2-(5-(2-acetylaminoethyl)-2-thienyl)ethyl)piperidin-4-yl) -6-fluoro-1,2-benzisoxazole] are 0.14 mg/kg, 0.94 nM, 0.13 nM and 16 nM.
In the same order, the values of `CC(=O)NCc1ccc(C(=O)CCCN2CCC(c3noc4cc(F)ccc34)CC2)s1` [Example 95, 3-(1-(4-(5-acetylaminomethyl-2-thienyl)-4-oxobutyl)piperidin-4-yl)-6-fluoro-1,2-benzisoxazole] are 2.6 mg/kg, 2.5 nM, 0.059 nM and 140 nM.
Turning to `CC(=O)Nc1ccc(SCCCN2CCC(c3noc4cc(F)ccc34)CC2)s1` [Example 40, 3-(1-(3-((5-acetylamino-2-thienyl)thio)propyl)piperidin-4-yl) -6-fluoro-1,2-benzisoxazole], the median effective dose (ED50) with apomorphine (po) came out at 1 mg/kg. Besides, the Ki on dopamine 2 (D2) receptor was found to be 0.71 nM; in series [1], 0.45 nM; in series [2], 0.35 nM.
Take `CC(=O)c1ccc(SCCCN2CCN(c3cccc(C)c3C)CC2)s1` [Example 4, 1(3-((5-acetyl-2-thienyl)thio)propyl)-4-(2,3-dimethylphenyl)piperazine]: the death entry in the series on ddY mice (100 mg/kg intraperitoneally, 5 male ddY mice) is reported as “No death was observed”; in the series on ddY mice (300 mg/kg orally), “no death was observed”.
As to `CC(=O)NCc1ccc(SCCCN2CCC(c3noc4cc(F)ccc34)CC2)s1` [Example 93, 3-(1-(3-((5-acetylaminomethyl-2-thienyl)thio)propyl)-piperidin-4-yl)-6-fluoro-1,2-benzisoxazole], in the series on apomorphine (po), the ED50 came to 2.9 mg/kg. The Ki amounted to 0.8 nM on dopamine 2 (D2) receptor, 0.79 nM in series [1] and 26 nM in series [2].
The corresponding values for `CC(=O)NCc1ccc(CCN2CCC(c3noc4cc(F)ccc34)CC2)s1` [Example 119, 3-(1-(2-(5-acetylaminomethyl-2-thicnyl)ethyl)piperidin-4-yl)-6-fluoro-1,2-benzisoxazole] are 0.16 mg/kg, 3.8 nM, 0.65 nM and 14 nM.
For `CC(=O)NCc1sc(CCN2CCC(c3noc4cc(F)ccc34)CC2)cc1C` [Example 151, 3-(1-(2-(5-acetylaminomethyl-4-methyl-2-thienyl)ethyl)-piperadin-4-yl)-6-fluoro-1,2-benzisoxazole], in the series with apomorphine (male dd mice, oral, 60 minutes before 0.5 mg/kg s.c. apomorphine hydrochloride, movement for 20 minutes), the ED50 is 0.76 mg/kg. Moreover, the Ki at dopamine 2 (D2) receptor came to 3.8 nM; in series [1], 0.099 nM; in series [2] it was 15 nM.
For the compound `CC(=O)NCc1cc(CCN2CCC(c3noc4cc(F)ccc34)CC2)c(C)s1` [Example 155, 3-(1-(2-(5-acetylaminomethyl-2-methyl-3-thienyl)ethyl)-piperidin-4-yl)-6-fluoro-1,2-benzisoxazole], the ED50 in the series on apomorphine (po) was 1.2 mg/kg. Moreover, the Ki was 1.4 nM at dopamine 2 (D2) receptor, 0.37 nM in series [1] and > 100 nM in series [2].
In the same order, the values of `CC(=O)c1ccc(SCCCN2CCC(c3noc4cc(F)ccc34)CC2)s1` [Example 36, 3-(1-(3-((5-acctyl-2-thienyl)thio)propyl)piperidin-4-yl)-6-fluoro-1,2-benzisoxazole] are 3.4 mg/kg, 0.61 nM, 1.3 nM and 0.75 nM.
The corresponding values for `NCc1ccc(CCCCN2CCC(c3noc4cc(F)ccc34)CC2)s1` [Example 165, 3-(1-(4-(5-aminomethyl-2-thienyl)butyl)piperidin-4-yl)-6-fluoro-1,2-benzisoxazole] are 0.24 mg/kg, 0.69 nM, 1.3 nM and 1.7 nM.

For the origin of these results see patent publication US5466691A, “Thiophene compound” (Yoshitomi Pharmaceutical Industries, Ltd., priority 1991, dated 1995).
